Here are results for 15 compounds from patent publication US5086165A, “Inhibitors of retroviral protease with a ketomethylene isosteric replaced amide bond” (Washington University, priority 1991, dated 1992).

Assay [1] addresses T1, HIV protease (Human immunodeficiency virus type 1 group M subtype B, UniProt P04585). In kind it is biochemical. Set-up: made in house; host or cells: chemical synthesis (gift of Dr. Stephen Kent, Caltech) or E. coli (gift of Dr. George Glover, Monsanto). To be noted: for Relative Rate: relative cleavage rate: percent of standard substrate concentration cleaved in twenty minutes, control Ac-Thr-Ile-Met-Met-Gln-Arg-NH2 = 1.00. The method, then: HIV protease assay. The HIV protease assay was conducted using either synthetic HIV protease [Schneider and Kent, Cell 54, 363 (1988)] kindly supplied by Dr. Stephen Kent of Caltech, or cloned material expressed in E. coli supplied by Dr. George Glover of the Monsanto Company. […] Synthetic protease (1 mg/ml) was dissolved in a buffer (20 mM PIPES, 0.5% NP-40 detergent, 1 mM dithiothreitol), pH 6.5 . Substrates were also dissolved in the same buffer at 1 mg/ml concentration. 5 μl 1 of substrate and 5 μl of HIV protease were added to an Eppendorf tube which was centrifuged for one minute and incubated at 25° for the desired time. The reaction was stopped by the addition of 50 μl of 50% TFA. The sample was diluted with 200 μl of water and applied to a C4 HPLC column developed with 0.1% TFA for 5 min followed by a gradient of 0-50% acetonitrile in 50 min. For inhibitor studies, 5 μl of the protease solution was preincubated for 10 min with the 5 μl of inhibitor (dissolved in 10% DMSO and diluted to 1 mg/ml with buffer). Then 5 μl of test substrate, acetyl-Thr-Ile-Met-Met-Gln-Arg-NH2 was added in order to determine inhibition of cleavage. Reactions were stopped as above and cleavage rates were monitored by HPLC as above.
Substrate analogs were prepared in order to examine the relative hydrolysis rates of the various sites. […] Relative cleavage rates were measured by comparing the percent of a standard substrate concentration cleaved by the same concentration of enzyme in twenty minutes (linear portion of curve).

The target of assay [2] is T2, retroviral protease (HIV-1) (Human immunodeficiency virus type 1 group M subtype B, UniProt P04585).
T2 construct: the retroviral protease, is contained within the polyprotein
The experiment in a line: fluorometric assay for HIV protease (Toth and Marshall). In kind it is biochemical. The following applies: for inhibition at 10 µM: read-out: percent at 10 μM, at 10 μM; for IC50: where isomers were resolved, activities of both isomers are shown. The method, then: These peptide analogs were assayed in solution for their ability to inhibit retroviral protease (HIV-1) by a fluorometric assay for HIV protease as described by Toth and Marshall, Int. J. Peptide Protein Res. 36, 546-550 (1990), and in U.S. Pat. No. 5,011,910.
Table 2, below, sets forth the median inhibitory concentration, IC50, (μM) for the compounds thus tested. In those cases where the isomers were resolved, the activities of both isomers are shown.

Assay [3] deals with T1, HIV protease. The following applies: cited from earlier work.

Where “and” joins values, the source holds several entries; their conditions need not be identical. Identical values can stand only once. Like-named read-outs stand apart in the source and are kept apart here. Where a SMILES comes first, the peptide text is derived from it.

Ac--Thr--Ile--Nle--Hle--Gln--Arg--NH2: at HIV protease [1], the “Relative Rate” value came to 0.95.

In the case of Aba--Thr--Ile--Nle--PnF--Gln--Arg--NH2, on HIV protease [1], the “Relative Rate” value was 1.46.

On to `CCCC[C@H](NC(=O)c1ccc2ccccc2n1)C(=O)CC(Cc1ccc2ccccc2c1)C(=O)N[C@@H](CCC(N)=O)C(=O)N[C@@H](CCCNC(=N)N)C(N)=O` (stereo partly drawn) [Qua--Nle.psi.(K)2-Nal--Gln--Arg--NH2, Qua-Nle.PSI.(K)2-Nal-Gln-Arg-NH2], for which the inhibition at 10 µM in assay [2] came to 96%.

The term Km denotes the concentration of substrate that gives half-maximal velocity. The Vmax is the top rate of the reaction or transport when substrate is in excess. Take “Ac-TIMMQR-NH2 [Ac--Thr--Ile--Met--Met--Gln--Arg--NH2, Ac-Thr-Ile-Met-Met-Gln-Arg-NH2]”: on HIV protease [1] (as substrate of HIV protease), the Km came out at 1400 µM and the Vmax amounted to 725 nmol/min/mg. For the same compound, at HIV protease [1], the “Relative Rate” value amounted to 1.00.

`CCCC[C@H](NC(=O)[C@@H](NC(=O)c1cnc2ccccc2n1)[C@@H](C)CC)C(=O)CC(Cc1ccc2ccccc2c1)C(=O)N[C@@H](CCC(N)=O)C(N)=O` (stereo partly drawn) [Qui--Ile--Nle.psi.(K)2-Nal--Gln--NH2, Qui-Ile-Nle.PSI.(K)2-Nal-Gln-NH2]: the inhibition at 10 µM in assay [2] was 54%.

Consider acetyl-QNY-PIV, for which the “cleavage by HIV protease” value at HIV protease [3] is “failed to be cleaved”.

For the compound “Ac-QNYPIV-NH2 [Ac--Gln--Asn--Tyr--Pro--Ile--Val--NH2]”, the “Relative Rate” value at HIV protease [1] was found to be 0.04.

The term IC50 denotes the midpoint of a concentration-inhibition curve. The compound `CCCC[C@H](NC(=O)[C@@H](NC(=O)c1ccc2ccccc2n1)[C@@H](C)CC)C(=O)CC(Cc1ccc2ccccc2c1)C(=O)N[C@@H](CCC(N)=O)C(=O)N[C@@H](CCCNC(=N)N)C(N)=O` (stereo partly drawn) [Qua-Ile-Nle.PSI.(K)2-Nal-Gln-Arg-NH2] displayed an IC50 in assay [2] of 8.5 nM.

`CC[C@H](C)[C@H](NC(=O)[C@@H](NC(=O)c1ccccc1N)[C@@H](C)O)C(=O)N[C@@H](Cc1ccccc1)C(=O)CC(C)C(=O)N[C@@H](CCC(N)=O)C(=O)N[C@@H](CCCNC(=N)N)C(N)=O` (stereo partly drawn) [Abz-Thr-Ile-Phe.PSI.(K)Ala-Gln-Arg-NH2] (HELM PEPTIDE1{[Nc1ccccc1C(=O)[*:2]].T.I.[CC(CC(=O)[C@H](Cc1ccccc1)N[*:1])C(=O)[*:2]].Q.R.[am]}$$$$V2.0) displayed an IC50 in assay [2] of 33 nM.

For SQNY-PIV, the “rate of cleavage relative to the octapeptide” value on HIV protease [3] (relative to VSQNYPIV) is listed as 90%.

As to `CCCC[C@H](NC(=O)[C@@H](NC(=O)[C@@H](NC(=O)c1cnc2ccccc2n1)[C@@H](C)O)[C@@H](C)CC)C(=O)CC(Cc1ccc2ccccc2c1)C(=O)N[C@@H](CCC(N)=O)C(N)=O` (stereo partly drawn) [Qui-Thr-Ile-Nle.PSI.(K)2-Nal-Gln-NH2], the IC50 in assay [2] is 1110 nM and 8080 nM.

Turning to VSQNYPIV, on HIV protease [3] (gag p17/gag p24 cleavage site substrate), the Km is 2500 µM.

In the case of `CCCC[C@H](NC(=O)c1cnc2ccccc2n1)C(=O)CC(Cc1ccc2ccccc2c1)C(=O)N[C@@H](CCC(N)=O)C(N)=O` (stereo partly drawn) [Qui--Nle.psi.(K)2-Nal--Gln--NH2, Qui-Nle.PSI.(K)2-Nal-Gln-NH2], the inhibition at 10 µM in assay [2] is 7%.

Turning to SQNY-PI, the “cleavage by HIV protease” value on HIV protease [3] was “failed to be cleaved”.

`CCCC[C@H](NC(=O)[C@@H](NC(=O)[C@@H](NC(=O)c1ccccc1N)[C@@H](C)O)[C@@H](C)CC)C(=O)CC(Cc1ccc2ccccc2c1)C(=O)N[C@@H](CCC(N)=O)C(=O)N[C@@H](CCCNC(=N)N)C(N)=O` (stereo partly drawn) [Abz-Thr-Ile-Nle-.PSI.(K)2-Nal-Gln-Arg-NH2] (HELM PEPTIDE1{[Nc1ccccc1C(=O)[*:2]].T.I.[CCCC[C@H](N[*:1])C(=O)CC(Cc1ccc2ccccc2c1)C(=O)[*:2]].Q.R.[am]}$$$$V2.0) showed a half-maximal inhibitory concentration (IC50) in assay [2] of 4.8 nM.
